From patent US20250351829A1, “HERBICIDAL COMBINATIONS AND A METHOD FOR CONTROLLING UNDESIRED VEGETATION” (UPL Mauritius Limited, priority 2022, published 2025) come the findings set out here.

Molecules are shown by their SMILES.

The assay has as its system Bidens pilosa. The assay is described as follows: Post-emergence herbicidal activity, weed control efficacy trials. The format is in vivo. The following applies: 7 DAA. On the procedure: Methodology: Trials were conducted to evaluate the efficacy of the combinations comprising L-glufosinate ammonium and additional herbicides on Bidens pilosa weed.
The soil used was sandy clay loam-sand: 68.0%; silt: 8.0%; clay: 24.0%.
All treatments were in 3 replications per treatment with a spray volume of about 150 L/ha.
Efficacy Evaluation: The expected efficacy of the combination comprising L-glufosinate ammonium and additional herbicides was calculated using the well-established Colby method.
In the Colby method, the expected (or predicted) response of a combination of herbicides is calculated by taking the product of the observed response for each individual component of the combination when applied alone, divided by 100, and subtracting this value from the sum of the observed response for each component when applied alone. An unexpected enhancement in efficacy of the combination is then determined by comparing the observed response of the combination to the expected (or predicted) response as calculated from the observed response of each individual component alone. If the observed response of the combination is greater than the expected (or predicted) response, or stated conversely, if the difference between the observed and expected response is greater than zero, then the combination is said to be synergistic or unexpectedly effective (Colby, S. R., Weeds, 1967(15), p. 20-22). The Colby method requires only a single dose of each herbicide applied alone and the mixture of both doses. The formula used to calculate the expected efficacy (EE) which was compared with the observed efficacy (OE) to determine the efficacy of the present disclosure is explained hereinbelow: […]

Take `Cc1ccc2c(c1)[C@H](Nc1nc(N)nc(C(C)F)n1)[C@@H](C)C2` (stereo partly drawn) [Indaziflam]: where the note is “50 g a.i./ha”, the “Observed efficacy (%) of Indaziflam (50 g a.i./ha)” value was 90%. In the case of `CP(=O)(O)CC[C@H](N)C(=O)O.N` [L-glufosinate ammonium], the “Observed efficacy (%) of L-glufosinate ammonium (150 g a.i./ha)” value is, setting by setting: (Example 1) 95%; (Example 2) 95%; (Example 3) 95%. For the compound `CCc1cccc(C)c1N(COC(C)C)C(=O)CCl` [Propisochlor], the “Observed efficacy (%) of Propisochlor (540 g a.i./ha)” value (540 g a.i./ha) was found to be 5%. As for `Cn1nc(C(F)(F)F)c(CS(=O)(=O)C2=NOC(C)(C)C2)c1OC(F)F` [pyroxasulfone, Pyroxasulfone], the “Observed efficacy (%) of pyroxasulfone (75 g a.i./ha)” value (75 g a.i./ha) amounted to 5%.
